Source: publication PMC8071358, “Targeting of the Essential acpP, ftsZ, and rne Genes in Carbapenem-Resistant Acinetobacter baumannii by Antisense PNA Precision Antibacterials” (Biomedicines, 2021)
Converted amounts (≈) assume the structure as drawn.

What was measured:
Assay in all cases: Antibiotic MIC (CLSI microdilution or gradient strips)
Format in all cases: cell-based, Acinetobacter baumannii
[1] = test system: CRAB strain AC6; conditions: blood isolate, CLSI; for MIC: Acinetobacter baumannii, AC6, read-out: MIC, AC6
Experimental: (§1) All minimum inhibitory concentration (MIC) determinations for antibiotics were performed by the standard microdilution method in 96-well microplate (Thermo-Scientific, Roskilde, Denmark) or by gradient test strips (Liofilchem, Italy) according to the Clinical and Laboratory Standards Institute guidelines.

[2] = test system: CRAB strain AC7; conditions: blood isolate, CLSI; for MIC: Acinetobacter baumannii, AC7, read-out: MIC, AC7
Experimental: as §1

[3] = test system: CRAB strain AC2; conditions: wound isolate, CLSI; for MIC: Acinetobacter baumannii, AC2, read-out: MIC, AC2
Experimental: as §1, with “guidelines. Escherichia coli ATCC 25922 was used as control.” for “guidelines.”

[4] = test system: CRAB strain AC3; conditions: for MIC: Acinetobacter baumannii, AC3, sputum isolate
Experimental: as §1, with “guidelines. Escherichia coli ATCC 25922 was used as control.” for “guidelines.”

[5] = test system: CRAB strain AC9; conditions: CSF isolate, CLSI; for MIC: Acinetobacter baumannii, AC9, read-out: MIC, AC9
Experimental: as §1, with “guidelines. Escherichia coli ATCC 25922 was used as control.” for “guidelines.”

[6] = test system: CRAB strain AC4; conditions: trachea isolate, CLSI; for MIC: Acinetobacter baumannii, AC4, read-out: MIC, AC4
Experimental: as §1, with “guidelines. Escherichia coli ATCC 25922 was used as control.” for “guidelines.”

[7] = test system: CRAB strain AC1; conditions: for MIC: Acinetobacter baumannii, AC1, wound isolate
Experimental: as §1, with “guidelines. Escherichia coli ATCC 25922 was used as control.” for “guidelines.”

[8] = test system: A. baumannii ATCC 19606 type strain; conditions: for MIC: Acinetobacter baumannii, ATCC19606
Experimental: as §1, with “guidelines. Escherichia coli ATCC 25922 was used as control.” for “guidelines.”

[9] = test system: CRAB strain AC8; conditions: sputum isolate, CLSI; for MIC: Acinetobacter baumannii, AC8, read-out: MIC, AC8
Experimental: as §1, with “guidelines. Escherichia coli ATCC 25922 was used as control.” for “guidelines.”

[10] = test system: CRAB strain SSI1104; conditions: for MIC: Acinetobacter baumannii, SSI1104
Experimental: as §1, with “guidelines. Escherichia coli ATCC 25922 was used as control.” for “guidelines.”

[11] = test system: CRAB strain AC46; conditions: sputum isolate, CLSI; for MIC: Acinetobacter baumannii, AC46, read-out: MIC, AC46
Experimental: as §1, with “guidelines. Escherichia coli ATCC 25922 was used as control.” for “guidelines.”

[12] = test system: CRAB strain AC5; conditions: for MIC: Acinetobacter baumannii, AC5, urine isolate
Experimental: as §1, with “guidelines. Escherichia coli ATCC 25922 was used as control.” for “guidelines.”

[13] = test system: CRAB strain AC44; conditions: for MIC: Acinetobacter baumannii, AC44, urine isolate
Experimental: as §1, with “guidelines. Escherichia coli ATCC 25922 was used as control.” for “guidelines.”

| MIC [1] [µg/mL] | MIC [2] [µg/mL] | MIC [3] [µg/mL] | MIC [4] [µg/mL] | MIC [5] [µg/mL] | MIC [6] [µg/mL] | MIC [7] [µg/mL] | MIC [8] [µg/mL] | MIC [9] [µg/mL] | MIC [10] [µg/mL] | MIC [11] [µg/mL] | MIC [12] [µg/mL] | MIC [13] [µg/mL] | Molecule | also measured |
| --- | --- | --- | --- | --- | --- | --- | --- | --- | --- | --- | --- | --- | --- | --- |
| 16 (≈ 41.7 µM) | 16 (≈ 41.7 µM) | 16 (≈ 41.7 µM) | 4 (≈ 10.4 µM) | 16 (≈ 41.7 µM) | 16 (≈ 41.7 µM) | 4 (≈ 10.4 µM) | 1 (≈ 2.61 µM) | 16 (≈ 41.7 µM) | > 16 | 16 (≈ 41.7 µM) | 16 (≈ 41.7 µM) | 16 (≈ 41.7 µM) | C[C@@H](O)[C@H]1C(=O)N2C(C(=O)O)=C(S[C@@H]3CN[C@H](C(=O)N(C)C)C3)[C@H](C)[C@H]12 [Meropenem] | – |
| 1 (≈ 1.71 µM) | 1 (≈ 1.71 µM) | 1 (≈ 1.71 µM) | 0.5 (≈ 0.854 µM) | 1 (≈ 1.71 µM) | 1 (≈ 1.71 µM) | 0.5 (≈ 0.854 µM) | 0.5 (≈ 0.854 µM) | 1 (≈ 1.71 µM) | 1 (≈ 1.71 µM) | 0.5 (≈ 0.854 µM) | 1 (≈ 1.71 µM) | 1 (≈ 1.71 µM) | CN(C)c1cc(NC(=O)CNC(C)(C)C)c(O)c2c1C[C@H]1C[C@H]3[C@H](N(C)C)C(O)=C(C(N)=O)C(=O)[C@@]3(O)C(O)=C1C2=O [Tigecycline] | – |
| – | – | – | – | – | – | – | – | – | – | – | – | – | Colistin | MIC, AC6 [1]: 1 µg/mL; MIC, AC7 [2]: 1 µg/mL; MIC, AC2 [3]: 1 µg/mL; MIC, AC3 ([4]; sputum isolate): 1 µg/mL; MIC, AC9 [5]: 1 µg/mL; MIC, AC4 [6]: 1 µg/mL; MIC, AC1 ([7]; wound isolate): 1 µg/mL; MIC, ATCC 19606 [8]: 1 µg/mL; MIC, AC8 [9]: 1 µg/mL; MIC, SSI 1104 [10]: 1 µg/mL; MIC, AC46 [11]: 1 µg/mL; MIC, AC5 ([12]; urine isolate): 1 µg/mL; MIC, AC44 ([13]; urine isolate): 0.5 µg/mL |
